Literature values as cited in patent US8268905B1, “Compositions containing poly(lactic acid), bacteriocin(s), plasticizers(s), and optionally pore forming agent(s), and methods or making” (The United States of America, as represented by the …, priority 2008, dated 2012).

Details: background statement

nisin
maximal temperature at which nisin can retain its bioactivity: 120 °C
